Results taken from paper PMC6270263, “Factors Influencing the Antifolate Activity of Synthetic Tea-Derived Catechins” (Molecules, 2013).

Tested on: SK-MEL-28 melanoma cells
Assay: Apoptosis assay (cell death detection ELISA) with or without site markers
Type: cell-based, human
Conditions: SK-MEL-28, 10 µM, alone
From the text: Serum is commonly used as a supplement in cell culture media. It supports cell growth and product formation by providing a broad spectrum of macromolecules, attachment factors, nutrients, and hormone and growth factors. The most commonly used animal serum supplement is foetal bovine serum, FBS (alternatively called foetal calf serum—FCS). Because BSA is a major component of FBS, the in vitro activity of catechins on tumour cells might be affected by their interaction with BSA. The effect of albumin binding on the biological activity of polyphenols is unclear. Does the bound ligand have some biological activity or does the polyphenol have to be in the free form to be active? To answer this question and to determine whether BSA-catechin interactions increase or decrease catechin anti-tumour activity, the proapoptotic activity of TMCG on SK-MEL-28 melanoma cells was probed in the presence of warfarin or ibuprofen [Figure 5(b)]. […] Because the binding of catechins to BSA seems to control drug availability, the lower affinity of TMCG and TMECG for serum albumins, with respect to natural tea catechins, might contribute to the high in vivo anti-tumour activity of these methylated synthetic catechins. […]
The human melanoma cell line SK-MEL-28 was obtained from American Type Culture Collection (ATCC, Manassas, VA, USA) and was maintained in Eagles’s Minimum Essential Medium (EMEM) supplemented with 10% (v/v) FBS and antibiotics at 37 °C in a humidified atmosphere containing 7.5% CO2. Cell viability was evaluated using the MTT cell proliferation assay. Cells were evaluated for apoptosis using a cell death detection ELISA (Cell Death Detection ELISAPLUS, Roche Diagnostics, Barcelona, Spain). […] The amount of nucleosomes is photometrically quantified at 405 nm by the peroxidase activity retained in the immunocomplexes. Apoptosis was defined as the specific enrichment of mono- and oligonucleosomes in the cytoplasm and was calculated by dividing the absorbance of treated samples with the absorbance of untreated samples after correcting for the number of cells. […]

| Compound | Induction of apoptosis, compound alone |
| --- | --- |
| CC(C)Cc1ccc(C(C)C(=O)O)cc1 (centres unmarked) [ibuprofen, reference compound] | did not induce apoptosis |
| CC(=O)CC(c1ccccc1)c1c(O)c2ccccc2oc1=O (centres unmarked) [warfarin, reference compound] | did not induce apoptosis |
